The values below are quoted from earlier work in paper PMC5571359, “Screening the Medicines for Malaria Venture Pathogen Box across Multiple Pathogens Reclassifies Starting Points for Open-Source Drug Discovery” (Antimicrobial Agents and Chemotherapy, 2017).

Usually pIC50 stands for −log10 of the IC50, conventionally taken in molar units.

This data set deals with P. falciparum ABS. The conditions noted are these: cited from earlier work; for pEC50: ChEMBL Data; for pIC50: read-out: Pf 3D7 Pbox IC50.
The mark [1] stands for this setting: NITD, read-out: NITD (ref 94) EC50.
Setting [2] is: Pf 3D7, ref Pathogen Box supporting information.
[3] abbreviates: TCMDC, read-out: TCMDC (ref 93) EX50.
Setting [4] is: P. falciparum, read-out: TCMDC (ref 93) EX50.
The mark [5] stands for this setting: P. falciparum 3D7, ref PBox supporting information.
The mark [6] stands for this setting: P. falciparum, read-out: NITD (ref 94) EC50.

pEC50, pIC50: −log10 of the molar value. Read-outs that look alike come from different tables or passages of the source.

With `O=S(=O)(c1ccc(Cl)cc1)N1CCN(C(=S)NCc2ccco2)CC1` [MMV000858], the pEC50 under setting [1] was 6.01. For the same compound, the negative-log IC50 (pIC50) under setting [2] is 5.92.
Take `COc1cccc2c(C)nc(N=C(N)N)nc12` [MMV000907]: the pEC50 under setting [1] is 6.54. In addition, the negative logarithm of the IC50 (pIC50) under setting [2] was 5.97.
On to `CCCS(=O)(=O)N1CCC(CO)(Cc2ccccc2C(F)(F)F)CC1` [MMV001059], for which the pEC50 reads like this: under setting [1], 5.90; (St Jude, read-out: St JUDE (ref 95) EC50) 5.47; under setting [3], 6.05. Further, the negative-log IC50 (pIC50) under setting [2] was 5.96.
For the compound `Cc1ccc2[nH]c3c(NCCN(C)C)ncnc3c2c1` [MMV006372], the pEC50 by setting is: under setting [1], 6.77; under setting [3], 6.06. Also, the pIC50 under setting [2] was 6.10.
For `COc1cc2ncnc(NC3CCN(Cc4ccccc4)CC3)c2cc1OC` [MMV006741], under setting [1], the pEC50 was 6.40. Besides, the negative logarithm of the IC50 (pIC50) under setting [2] is 6.21.
On to `Cc1cc(Cl)c(S(=O)(=O)N2CCCC2)cc1OCC(=O)NC1CCCCC1` [MMV006833], for which, under setting [1], the pEC50 was 7.00. The negative logarithm of the IC50 (pIC50) under setting [2] is 6.52.
With `Cc1cc(NC(=O)c2ccc(S(=O)(=O)N(Cc3ccccc3)C(C)C)cc2)no1` [MMV007133], the pEC50 under setting [1] was 5.57 and the pEC50 under setting [3] was 6.07. The pIC50 under setting [2] was 6.01.
`COc1cc(OC)cc(C(=O)NCC2Cc3cc(Cl)cc(-c4ccncc4)c3O2)c1` (stereo not shown) [MMV007471]: the pEC50 under setting [1] was 6.43. For the same compound, under setting [2], the pIC50 is 6.24.
Take `Cc1cc(C)n(-c2ccc(NC(=O)C3CCN(Cc4cnc(C)s4)CC3)cc2)n1` [MMV007625]: the pEC50 under setting [1] is 6.09. In addition, the pIC50 under setting [2] is 6.11.
As for `O=C(NC1CC1)c1ccc(CSCc2ccccc2Cl)o1` [MMV007803], under setting [1], the pEC50 is 6.30. Also, the pIC50 under setting [2] is 5.85.
As for `COc1ccc(CCN2CCC(NCc3cccc(N(C)C)c3)CC2)cc1` [MMV011511], the pEC50 runs as follows: under setting [1], 6.09; under setting [3], 5.88. Moreover, under setting [2], the negative-log IC50 (pIC50) is 5.92.
With `FC(F)(F)c1cnc(Sc2nnc(-c3ccncc3)o2)c(Cl)c1` [MMV011765], the pEC50 is 5.73 under setting [1] and 6.57 under setting [3]. Besides, under setting [2], the negative-log IC50 (pIC50) is 6.57.
`Cc1cc(Nc2ccncc2)n2nc(C)c(-c3ccccc3Cl)c2n1` [MMV016136]: the pEC50 under setting [3] is 6.16. The pIC50 under setting [2] was 6.20.
Regarding `COc1ccc(C2CC(c3cccs3)=NN2C(=O)c2ccco2)cc1OC` (stereo not shown) [MMV019234], the pEC50 under setting [3] was 6.77. The negative logarithm of the IC50 (pIC50) under setting [2] was 6.52.
For the compound `CCC(NC(=O)c1ccccc1NC(=O)c1ccc(C)cc1)C(=O)OC` (stereo not shown) [MMV019551], under setting [3], the pEC50 was 6.12. Also, the negative logarithm of the IC50 (pIC50) under setting [2] was 6.80.
On to `CCOc1ccccc1C(=O)Nc1cccc(-c2nc3ncccn3c2C)c1` [MMV019790], for which, under setting [3], the pEC50 is 6.07. In addition, under setting [2], the pIC50 was 5.90.
In the case of `Cc1ccc2cc(C3NC(=O)c4ccccc4N3)c(Cl)nc2c1` (stereo not shown) [MMV019807], the pEC50 under setting [3] was 6.02. Further, the pIC50 under setting [2] was 5.78.
Consider `O=C(Nc1ccnc(-c2cccnc2)n1)c1cc(C(F)(F)F)cc(C(F)(F)F)c1` [MMV019838], for which, under setting [3], the pEC50 was 6.08. Besides, under setting [2], the negative logarithm of the IC50 (pIC50) is 5.98.
For the compound `Cc1nn(C)cc1C(C)Nc1nncc(-c2ccc(C(F)(F)F)cc2)n1` (stereo not shown) [MMV019993], under setting [3], the pEC50 was 6.60. Further, the pIC50 under setting [2] was 6.92.
In the case of `CNC(=O)c1cc(S(=O)(=O)N2CCN(c3ccccn3)CC2)cs1` [MMV020136], the pEC50 under setting [3] is 6.17. In addition, the pIC50 under setting [2] is 5.95.
For `CC(C)NCC(=O)Nc1cccc(C(=O)Nc2cccc(C(F)(F)F)c2)c1` [MMV020165], the pEC50 under setting [3] is 6.57. Moreover, the pIC50 under setting [2] was 6.46.
Take `CC(C(=O)N1CCCC1)N1CCN(S(=O)(=O)c2ccc(C(C)(C)C)cc2)CC1` (stereo not shown) [MMV020291]: under setting [3], the pEC50 is 6.19. Further, under setting [2], the pIC50 was 6.05.
In the case of `COc1ccccc1C(C)NCC(=O)Nc1cc(C(F)(F)F)ccc1Cl` (stereo not shown) [MMV020321], the pEC50 under setting [3] was 6.11. Further, under setting [2], the pIC50 is 5.86.
Regarding `CC1CCCN(C(=O)C(C)Nc2cc(Cl)ccc2N2CCOCC2)C1` (stereo not shown) [MMV020388], the pEC50 under setting [3] was 6.49. Under setting [2], the pIC50 is 6.28.
Take `CC(C)C(C(=O)Nc1ccc(S(=O)(=O)N(C)C)cc1)c1ccc(Cl)cc1` (stereo not shown) [MMV020391]: the pEC50 under setting [3] is 6.03. Moreover, the pIC50 under setting [2] is 6.03.
For the compound `COc1ccccc1CNC(=O)c1cc(C2CC2)nc2c1cnn2C(C)C` [MMV020517], the pEC50 under setting [3] was 5.99. The pIC50 under setting [2] is 6.03.
`Cc1cc2ccccc2n1CC(=O)N1CC(C(=O)N2CCCCC2)Oc2ccccc21` (stereo not shown) [MMV020520]: the pEC50 under setting [3] was 6.05. Moreover, under setting [2], the negative logarithm of the IC50 (pIC50) was 5.97.
For `Cc1noc(C)c1C(=O)N1CCCC(c2[nH]c3c(C)cccc3c2-c2ccncc2)C1` (stereo not shown) [MMV020623], under setting [3], the pEC50 is 6.08. Besides, under setting [2], the pIC50 is 6.03.
`COc1ccc(-c2cncc3ccc(C(=O)NCCCn4ccnc4)nc23)cc1` [MMV020670]: the pEC50 under setting [3] is 6.12. Further, the pIC50 under setting [2] is 5.97.
For the compound `COc1ccc(Cl)cc1NC(=O)CN(C)C(=O)c1cnn(-c2ccccc2)n1` [MMV020710], under setting [3], the pEC50 was 6.64. Moreover, the negative-log IC50 (pIC50) under setting [2] was 6.62.
Take `CC(C)(C)c1cc(C(=O)Nc2cccnc2)cc(C(=O)Nc2cccnc2)c1` [MMV020982]: the pEC50 under setting [3] was 6.12. For the same compound, the negative logarithm of the IC50 (pIC50) under setting [2] was 6.05.
For `Cc1cc(NCC(C)C)c2n[nH]c(-c3ccccc3)c2n1` [MMV021375], under setting [3], the pEC50 is 6.13. Moreover, the pIC50 under setting [2] was 5.85.
For the compound `CCN(CC)CCCN1CCN(C(=O)c2cccc(-c3noc(C(F)(F)F)n3)c2)CC1` [MMV022236], under setting [3], the pEC50 is 6.82. For the same compound, the pIC50 under setting [2] was 6.72.
Regarding `c1ccc2c(c1)CN(CC1CC1)CC1(CCN(Cc3c[nH]c4cnccc34)CC1)O2` [MMV023183], the pEC50 under setting [3] is 6.05. Besides, the pIC50 under setting [2] is 6.21.
Turning to `CC(C)(C)c1cc(C(=O)N2CCN(c3nccnc3C#N)CC2)n(Cc2ccccc2)n1` [MMV023949], the pEC50 under setting [3] is 6.12. Further, the pIC50 under setting [2] was 6.22.
As to `O=C(Nc1cccc(-c2ccc(NCCCN3CCCC3)nc2)c1)c1ccccc1` [MMV023953], the pEC50 under setting [3] was 6.06. Further, the negative-log IC50 (pIC50) under setting [2] was 6.07.
On to `CS(=O)(=O)c1cccc(-c2cnc3[nH]cc(-c4ccc(CCC(=O)O)cc4)c3c2)c1` [MMV026020], for which the pEC50 under setting [4] is 6.20. Also, under setting [5], the negative-log IC50 (pIC50) was 6.30.
Consider `OCc1ccc(-c2cncc(Nc3cccc(Cl)c3)c2)cc1` [MMV026468], for which, under setting [4], the pEC50 was 7.13. Also, the negative-log IC50 (pIC50) under setting [5] was 7.47.
Turning to `CC(C)(C)CN1C(=O)C(c2ccccc2)(c2ccccc2)N=C1N` [MMV026550], the pEC50 under setting [4] is 6.28. For the same compound, the pIC50 under setting [5] was 6.10.
Turning to `O=C(Nc1cnc2ccccc2c1)c1cccc(-n2cnnn2)c1` [MMV084864], the pEC50 under setting [6] was 6.77. The negative logarithm of the IC50 (pIC50) under setting [5] is 6.27.
With `O=C(C(Cc1c[nH]c2ccccc12)NS(=O)(=O)c1ccc(Cl)cc1)N1CCCCC1` (stereo not shown) [MMV085210], the pEC50 under setting [6] is 6.14. For the same compound, the pIC50 under setting [5] is less than 5.70.
For the compound `CCCNC(=O)N1CCC2(CC1)CC(=O)c1cc(C)ccc1O2` [MMV085230], the pEC50 under setting [6] was 6.06. For the same compound, the negative logarithm of the IC50 (pIC50) under setting [5] is 5.69.
Take `CN1CCN(c2nccc3[nH]c(-c4cccc(F)c4)cc23)CC1` [MMV393144]: the pIC50 under setting [5] is 5.84.
Take `CC(=O)Nc1ccc(NC(=O)c2cc(-c3cc(Cl)ccc3O)[nH]n2)cc1` [MMV676380]: the pEC50 under setting [4] was 6.74. Under setting [5], the pIC50 was 6.46.
Turning to `O=C(c1ccc(NCCO)cc1)C1C[C@H]1c1ccc(Cl)cc1` (stereo partly shown) [MMV676877], the pIC50 under setting [5] is 6.18.
